The values that follow are results of earlier work, collected in patent US10058529B2, “Nutraceutical composition for PDE4 inhibition, enhanced dopamine metabolism and long term potentiation” (priority 2013, dated 2018).

The test system of one series is acetylcholine. The conditions noted are these: in vivo.
Series [1] has as its system phosphodiesterase enzymes (PDE 1 through 5).
For series [2] the following is noted: co-administered piperine.
The subject of a further series is PDE4. The conditions noted are these: reference 38.
For series [3] the following is noted: low doses.

In the case of `CC(=O)O[C@H](CC(=O)[O-])C[N+](C)(C)C` [Acetyl-L-carnitine, acetyl-L-carnitine], in the series with acetylcholine, the “levels of acetylcholine in the brain” value is on record as “increase”.
Turning to `O=c1cc(-c2ccc(O)c(O)c2)oc2cc(O)cc(O)c12` [Luteolin, luteolin], in series [1], the “inhibition of phosphodiesterase enzymes (PDE 1 through 5)” value is on record as “can inhibit”.
Regarding `O=C(/C=C/C=C/c1ccc2c(c1)OCO2)N1CCCCC1` [Piperine, piperine], the bioavailability of resveratrol entry in series [2] is listed as “enhance the bioavailability”.
For the compound `COc1ccc([C@@]23C=CC(=O)C[C@@H]2N(C)CC3)cc1OC` [mesembrenone], the PDE4 inhibition entry with PDE4 is “significantly inhibit”.
In the case of `COc1ccc(C2CNC(=O)C2)cc1OC1CCCC1` (centres unmarked) [rolipram], the side effect result in series [3] is on record as “emesis (vomiting) at low doses”.
